Literature values as cited in patent publication US20070053983A1 (priority 2005, published 2007).

Test system: β-adrenergic receptors
Details: man; reduced heart rate, cardiac output and exercise systolic pressure; inhibition of isoproterenol-induced and reflex orthostatic tachycardia

COCCc1ccc(OCC(O)CNC(C)C)cc1 (stereo not shown) [Metoprolol]
β-blocking activity: confirmed the β-blocking activity
